Patent US6362211B1, “Polycyclic indanylimidazoles with alpha2 adrenergic activity” (Orion Corporation, priority 2000, dated 2002)

The compounds below were run on Alpha2 Adrenoceptors (alpha2AR) (assay: Antagonist activity on alpha2 adrenoceptors in rat vas deferens in vitro (electrically evoked twitch response)). Details: isolated rat vas deferens, field stimulation; antagonist given at least five minutes before alpha2AR agonist.
Assay type: cell-based
Method: Antagonist Activity on Alpha2 Adrenoceptors (alpha2AR) in Rat Vas Deferens in Vitro
Rats were killed by CO2-suffocation. Vas deferentia were dissected out and both prostatic halves were removed to tissue chambers containing Krebs-solution of the following composition (mM): NaCl 118, KCl 4.7, CaCl2 2.5, KH2PO4 1.2, MgSO4 0.6, NaHCO3 25, glucose 11.1, aerated by 5% carbogen, temperature 37° C., pH 7.4. Propranolol […] and desipramine […] were added to prevent the possible effects on […] receptors and to prevent re-uptake of released norepinephrine, respectively. Preparations were tied to the bottom hooks of the incubation chambers and the to isometric force-displacement transducers above. Electrical stimulation was started after the equilibrium period/5 minutes under a resting tension of 0.5 g) by introducing field stimulation with the following parameters: twin-pulses, voltage 70 V, frequency 0.2 Hz, delay 5 ms, duration 2 ms. […] Inhibition of the electrically evoked contractions was measured as the response to alpha2AR agonists. Antagonist was administered into the incubation medium at least five minutes before agonist. Means±SEM of percentage inhibition were calculated in the absence and in the presence of antagonist and expressed as dose-response curves. In order to express the antagonist potency, pA2-value was calculated.

Structure (SMILES)	Vas deferens Alpha2 antagonistic activity, pA2
COc1ccc2c(c1)C1CCCCC1(c1c[nH]cn1)C2 (stereo not shown) [Example 5(a), 4-(3-Methoxy-4b,5,6,7,8,9-hexahydrofluoren-8a-yl)-1H-imidazole]	pA2 = 6.9
C=C1CCC2(c3c[nH]cn3)Cc3ccccc3C12 (stereo not shown) [2(a), 4-(3-Methylene-2,3,3a,8-tetrahydro-1H-cyclopenta[a]inden-8a-yl)-1H-imidazole]	pA2 = 7.8
CC1CCC2(c3c[nH]cn3)Cc3ccccc3C12 (stereo not shown) [Example 2(b), 4-(3-Methyl-2,3,3a,8-tetrahydro-1H-cyclopenta[a]inden-8a-yl)-1H-imidazole]	pA2 = 7.4
c1ccc2c(c1)CC1(c3c[nH]cn3)CCCCC21 (stereo not shown) [3(i), 4-(4b,5,6,7,8,9-Hexahydrofluoren-8a-yl)-1H-imidazole]	pA2 = 8.2
Oc1ccc2c(c1)C1CCCCC1(c1c[nH]cn1)C2 (stereo not shown) [Example 5(b), 8a-(1H-Imidazol-4-yl)-5,6,7,8,8a,9-hexahydro-4bH-fluoren-3-ol]	pA2 = 7.7
c1ccc2c(c1)CC1(c3c[nH]cn3)CCCC21 (stereo not shown) [Example 1(e), 4-(2,3,3a,8-Tetrahydro-1H-cyclopenta[a]inden-8a-yl)-1H-imidazole]	pA2 = 8.4
c1ccc2c(c1)CC1(c3c[nH]cn3)C3CCC(CC3)C21 (stereo not shown) [Example 7(f), 4-(5,8-Ethano-4b,5,6,7,8,9-hexahydro-fluoren-8a-yl)-1H-imidazole]	pA2 = 5.3
OCCOCCOc1ccc2c(c1)C1CCCCC1(c1c[nH]cn1)C2 (stereo not shown) [Example 6, 2-{2-[8a-(1H-Imidazol-4-yl)-5,6,7,8,8a,9-hexahydro-4bH-fluoren-3-yloxy]-ethoxy}-ethanol]	pA2 = 6.0
Fc1ccc2c(c1)C1CCCCC1(c1c[nH]cn1)C2 (stereo not shown) [Example 4, 4-(3-Fluoro-4b,5,6,7,8,9-hexahydrofluoren-8a-yl)-1H-imidazole]	pA2 = 7.4
c1ccc2c(c1)CC1(c3c[nH]cn3)Cc3ccccc3C21 (stereo not shown) [Example 8, 4-(4b,10-Dihydro-9H-indeno[1,2-a]inden-9a-yl)-1H-imidazole]	pA2 = 7.4
